Experimental data from ChEMBL document CHEMBL1201862, “PubChem BioAssay data set” (2004).
Several values for one entry are separate records, joined by “and”; a condition that tells them apart may be missing. Equal entries are not always repeated.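 Five compound concentrations were applied to cells in 96-well plates for 48 hours; endpoints were derived by simple linear interpolation of the resulting dose-response curve. The concentration for 50% growth inhibition is given as GI50.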 Activity calls are given as the source filed them. Rule as the data show it: active = GI50 up to about 1.1 µM and inactive = higher.

How the values were obtained:
Experiment in all cases: growth of human tumour cells (NCI), 48 h
NCI-H23 = tested on: NCI-H23
HOP-92 = tested on: HOP-92
SK-OV-3 = tested on: SK-OV-3
HL-60 = tested on: HL-60
CAKI-1 = tested on: CAKI-1
UACC-257 = tested on: UACC-257
MDA-MB-435 = tested on: MDA-MB-435
HCT-15 = tested on: HCT-15
PC-3 = tested on: PC-3
MDA-MB-231 = tested on: MDA-MB-231
HT-29 = tested on: HT-29
BT-549 = tested on: BT-549
CCRF-CEM = tested on: CCRF-CEM
A498 = tested on: A498
IGROV-1 = tested on: IGROV-1
COLO 205 = tested on: COLO 205
DU-145 = tested on: DU-145
LOX IMVI = tested on: LOX IMVI
MDA-N = tested on: MDA-N
OVCAR-5 = tested on: OVCAR-5
SK-MEL-5 = tested on: SK-MEL-5
SK-MEL-28 = tested on: SK-MEL-28
EKVX = tested on: EKVX
HCC 2998 = tested on: HCC 2998
OVCAR-3 = tested on: OVCAR-3
M14 = tested on: M14
SN12C = tested on: SN12C
MCF7 = tested on: MCF7
MOLT-4 = tested on: MOLT-4
RPMI-8226 = tested on: RPMI-8226
NCI/ADR-RES = tested on: NCI/ADR-RES
UACC-62 = tested on: UACC-62
SF-539 = tested on: SF-539
HCT-116 = tested on: HCT-116
SW-620 = tested on: SW-620
SF-295 = tested on: SF-295
NCI-H460 = tested on: NCI-H460
NCI-H522 = tested on: NCI-H522
OVCAR-8 = tested on: OVCAR-8
786-0 = tested on: 786-0
KM12 = tested on: KM12
SF-268 = tested on: SF-268
HOP-62 = tested on: HOP-62
Malme-3M = tested on: Malme-3M
ACHN = tested on: ACHN
TK-10 = tested on: TK-10
SNB-19 = tested on: SNB-19
A549 = tested on: A549
OVCAR-4 = tested on: OVCAR-4
SK-MEL-2 = tested on: SK-MEL-2
Hs-578T = tested on: Hs-578T
U-251 = tested on: U-251
RXF 393 = tested on: RXF 393

With `CCC1C(C#N)=C(N)OC2=C1C(=O)CC(C)(C)C2` (centres undefined) the GI50 (NCI-H23) was > 100 µM (inactive), the GI50 (HOP-92) was > 100 µM (inactive) and the GI50 (SK-OV-3) was > 100 µM (inactive). The GI50 (HL-60) was > 100 µM (inactive), the GI50 (CAKI-1) was > 100 µM (inactive) and the GI50 (UACC-257) was 35.9 µM (inactive). For the same compound, the GI50 (MDA-MB-435) was > 100 µM (inactive), the GI50 (HCT-15) was over 100 µM and the GI50 (PC-3) was > 100 µM (inactive). For the same compound, the GI50 (MDA-MB-231) was > 100 µM (inactive), the GI50 (HT-29) was > 100 µM (inactive) and the GI50 (BT-549) was > 100 µM (inactive). The GI50 (CCRF-CEM) was > 100 µM (inactive), the GI50 (A498) was > 100 µM (inactive) and the GI50 (IGROV-1) was > 100 µM (inactive). The GI50 (COLO 205) was > 100 µM (inactive), the GI50 (DU-145) was > 100 µM (inactive) and the GI50 (LOX IMVI) was > 100 µM (inactive). The GI50 (MDA-N) was > 100 µM (inactive), the GI50 (OVCAR-5) was > 100 µM (inactive) and the GI50 (SK-MEL-5) was > 100 µM (inactive). For the same compound, the GI50 (SK-MEL-28) was > 100 µM (inactive), the GI50 (EKVX) was > 100 µM (inactive) and the GI50 (HCC 2998) was > 100 µM (inactive). The GI50 (OVCAR-3) was > 100 µM (inactive), the GI50 (M14) was > 100 µM (inactive) and the GI50 (SN12C) was > 100 µM (inactive). The GI50 (MCF7) was > 100 µM (inactive), the GI50 (MOLT-4) was > 100 µM (inactive) and the GI50 (RPMI-8226) was > 100 µM (inactive). The GI50 (NCI/ADR-RES) was > 100 µM (inactive), the GI50 (UACC-62) was > 100 µM (inactive) and the GI50 (SF-539) was > 100 µM (inactive). The GI50 (HCT-116) was > 100 µM (inactive), the GI50 (SW-620) was > 100 µM (inactive) and the GI50 (SF-295) was > 100 µM (inactive). For the same compound, the GI50 (NCI-H460) was > 100 µM (inactive), the GI50 (NCI-H522) was > 100 µM (inactive) and the GI50 (OVCAR-8) was > 100 µM (inactive). The GI50 (786-0) was > 100 µM (inactive), the GI50 (KM12) was > 100 µM (inactive) and the GI50 (SF-268) was > 100 µM (inactive). For the same compound, the GI50 (HOP-62) was > 100 µM (inactive), the GI50 (Malme-3M) was > 100 µM (inactive) and the GI50 (ACHN) was > 100 µM (inactive). For the same compound, the GI50 (TK-10) was > 100 µM (inactive), the GI50 (SNB-19) was > 100 µM (inactive) and the GI50 (A549) was > 100 µM (inactive). The GI50 (OVCAR-4) was > 100 µM (inactive), the GI50 (SK-MEL-2) was > 100 µM (inactive) and the GI50 (Hs-578T) was > 100 µM (inactive). The GI50 (U-251) was > 100 µM (inactive).
In the case of `CC(=O)OCC1OC(SC2=N/C(=C\c3ccc(Br)s3)C(=O)N2c2ccccc2)C(OC(C)=O)C(OC(C)=O)C1OC(C)=O` (centres undefined), the GI50 (NCI-H23) is reported as 19 µM (inactive) and 33.4 µM (inactive), the GI50 (HCT-15) is reported as > 100 µM and 66.8 µM and the GI50 (PC-3) is reported as 34.1 µM (inactive) and 58.5 µM (inactive). For the same compound, the GI50 (MDA-MB-231) was 58.5 µM (inactive) and 42.9 µM (inactive), the GI50 (BT-549) was 24.4 µM (inactive) and 41.6 µM (inactive) and the GI50 (A498) was 41.1 µM (inactive) and 58.7 µM (inactive). For the same compound, the GI50 (COLO 205) was 41.2 µM (inactive) and 57.9 µM (inactive), the GI50 (LOX IMVI) was 47.8 µM (inactive) and 64.3 µM (inactive) and the GI50 (MDA-N) was > 100 µM (inactive) and 54.6 µM (inactive). The GI50 (OVCAR-5) was > 100 µM (inactive), the GI50 (SK-MEL-5) was 52.2 µM (inactive) and 42.9 µM (inactive) and the GI50 (SK-MEL-28) was > 100 µM (inactive) and 82.8 µM (inactive). For the same compound, the GI50 (RXF 393) was 12.1 µM (inactive) and 9.64 µM (inactive), the GI50 (EKVX) was 34.3 µM (inactive) and 30.7 µM (inactive) and the GI50 (HCC 2998) was 59 µM (inactive) and 36.5 µM (inactive). The GI50 (SN12C) was 50.6 µM (inactive), the GI50 (MCF7) was 42 µM (inactive) and 78.9 µM (inactive) and the GI50 (NCI/ADR-RES) was 40.9 µM (inactive) and 43.1 µM (inactive). For the same compound, the GI50 (UACC-62) was 30.6 µM (inactive) and 30.9 µM (inactive), the GI50 (SW-620) was > 100 µM (inactive) and 92 µM (inactive) and the GI50 (SF-295) was 39.8 µM (inactive) and 58.1 µM (inactive). The GI50 (NCI-H460) was 30.1 µM (inactive) and 38.1 µM (inactive), the GI50 (NCI-H522) was 21.8 µM (inactive) and 25.5 µM (inactive) and the GI50 (SF-268) was > 100 µM (inactive) and 55.8 µM (inactive). For the same compound, the GI50 (HOP-62) was 55 µM (inactive) and 41.7 µM (inactive), the GI50 (Malme-3M) was 50.6 µM (inactive) and 53.6 µM (inactive) and the GI50 (ACHN) was 32.1 µM (inactive) and 52.1 µM (inactive). The GI50 (TK-10) was 40.6 µM (inactive) and 60.3 µM (inactive), the GI50 (SNB-19) was 56.4 µM (inactive) and 37.1 µM (inactive) and the GI50 (OVCAR-4) was 31.8 µM (inactive) and 41.9 µM (inactive). The GI50 (SK-MEL-2) was 16.7 µM (inactive) and 32.6 µM (inactive) and the GI50 (Hs-578T) was 48.1 µM (inactive) and 35.2 µM (inactive).
